# Data taken from ChEMBL document CHEMBL4765326, “Anchoring BODIPY photosensitizers enable pan-microbial photoinactivation” (Eur J Med Chem, 2020).
# pIC50: −log10 of the molar value. Active and inactive are the calls of the source. The rule behind the calls is not given here.
# Experiments:
# [1] = system: Candida albicans; assay: Antifungal activity against Candida albicans up to 80 uM by broth microdilution method; type: functional, organism-based; settings: dose microM <=80
# [2] = system: Staphylococcus aureus; assay: Antibacterial activity against methicillin resistant Staphylococcus aureus up to 80 uM by broth microdilution method; type: functional, organism-based; settings: dose microM <=80
# [3] = system: Escherichia coli; assay: Antibacterial activity against Escherichia coli up to 80 uM by broth microdilution method; type: functional, organism-based; settings: dose microM <=80
# [4] = system: Staphylococcus aureus; assay: Photodynamic antibacterial activity against Staphylococcus aureus assessed as bacterial eradication preincubated for 20 mins in dark condition followed by 18 J/cm2 LED light irradiation and measured after 18 hrs by broth microdilution method; type: functional; settings: light or radiation study, 18.33 h, time 1100 min
# [5] = system: Escherichia coli; assay: Photodynamic antibacterial activity against Escherichia coli assessed as bacterial eradication preincubated for 20 mins in dark condition followed by 18 J/cm2 LED light irradiation and measured after 18 hrs by broth microdilution method; type: functional; settings: light or radiation study, 18.33 h, time 1100 min
# [6] = system: Staphylococcus aureus; assay: Photodynamic antibacterial activity against methicillin resistant Staphylococcus aureus assessed as bacterial eradication preincubated for 20 mins in dark condition followed by 18 J/cm2 LED light irradiation and measured after 18 hrs by broth microdilution method; type: functional; settings: light or radiation study, 18.33 h, time 1100 min
# [7] = system: Candida albicans; assay: Photodynamic antifungal activity against Candida albicans assessed as fungal eradication preincubated for 20 mins in dark condition followed by 18 J/cm2 LED light irradiation and measured after 18 hrs by broth microdilution method; type: functional; settings: light or radiation study, 18.33 h, time 1100 min
# [8] = Induction of singlet oxygen generation in DPBF solution assessed as singlet oxygen quantum yield irradiated with 80 mW/cm2 light by DPBF-based assay; type: functional
# [9] = system: Staphylococcus aureus; assay: Antibacterial activity against Staphylococcus aureus up to 80 uM by broth microdilution method; type: functional, organism-based; settings: dose microM <=80
# [10] = Octanol-water partition coefficient, logP of compound incubated for 24 hrs under shaking condition; type: physicochemical
# [11] = system: Cell membrane; assay: Disruption of cell membrane integrity in Staphylococcus aureus at 2 uM irradiated with 6J/cm2 light followed by compound exposure for 10 mins by FL-4L/propidium iodide Live/dead staining based laser confocal microscopic analysis
# [12] = system: Escherichia coli; assay: Binding affinity to Escherichia coli cell wall assessed as bound fraction at 25 uM measured after 3 to 10 mins; settings: time 3-10 min
# [13] = system: Escherichia coli; assay: Antimicrobial activity against Escherichia coli incubated for 36 to 48 hrs under dark conditions; type: functional, organism-based; settings: time 36-48 hrs
# [14] = system: Candida albicans; assay: Binding affinity to Candida albicans cell wall at 50 uM preincubated with 12.5 to 50 mM Ca2+ for 30 mins followed by incubation with compound for 30 mins
# [15] = system: HaCaT; assay: Phototoxicity against human HaCaT cells assessed as reduction in cell viability preincubated for 30 mins followed by irradiation with 6J/cm2 light and measured after 24 hrs by MTT assay; type: cell-based; settings: light or radiation study
# [16] = system: Candida albicans; assay: Photodynamic antimicrobial activity against Candida albicans preincubated for 10 mins in dark followed by irradiation with 9J/cm2 light and measured after incubation for 36 to 48 hrs; type: functional, organism-based; settings: dose 2-10 µM, time 2170-2890 min
# [17] = system: HaCaT; assay: Dark toxicity in human HaCaT cells assessed as reduction in cell viability incubated for 30 mins under dark conditions by MTT assay; type: cell-based; settings: 0.5 h
# [18] = system: Candida albicans; assay: Light dose-dependent antimicrobial activity against Candida albicans at 2 to 4 uM preincubated for 10 mins in dark followed by irradiation with 0.6 to 9J/cm2 light dose incubated for 36 to 48 hrs; type: functional, organism-based; settings: dose 2-4 µM, time 2170-2890 min
# [19] = system: Staphylococcus aureus; assay: Light dose-dependent antimicrobial activity against methicillin-resistant Staphylococcus aureus at 2 to 4 uM preincubated for 10 mins in dark followed by irradiation with 0.6 to 6J/cm2 light dose incubated for 36 to 48 hrs; type: functional, organism-based; settings: dose 2-4 µM, time 2170-2890 min
# [20] = system: Escherichia coli; assay: Binding affinity to Escherichia coli cell wall at 50 uM preincubated with 12.5 to 50 mM Ca2+ for 30 mins followed by incubation with compound for 30 mins
# [21] = system: Staphylococcus aureus; assay: Antimicrobial activity against Staphylococcus aureus incubated for 36 to 48 hrs under dark conditions; type: functional, organism-based; settings: time 36-48 hrs
# [22] = system: Escherichia coli; assay: Light dose-dependent antimicrobial activity against Escherichia coli at 2 to 4 uM preincubated for 10 mins in dark followed by irradiation with 0.6 to 6J/cm2 light dose incubated for 36 to 48 hrs; type: functional, organism-based; settings: dose 2-4 µM, time 2170-2890 min
# [23] = system: Candida albicans; assay: Binding affinity to Candida albicans cell wall assessed as bound fraction at 25 uM measured after 3 to 10 mins; settings: time 3-10 min
# [24] = system: Cell membrane; assay: Binding affinity to Escherichia coli cell membrane assessed as reduction in zeta potential by zetasizer-based analysis; type: subcellular
# [25] = system: Cell membrane; assay: Disruption of cell membrane integrity in Escherichia coli at 2 uM irradiated with 6J/cm2 light followed by compound exposure for 10 mins by FL-4L/propidium iodide Live/dead staining based laser confocal microscopic analysis
# [26] = system: Escherichia coli; assay: Photodynamic antimicrobial activity against Escherichia coli preincubated for 10 mins in dark followed by irradiation with 6J/cm2 light and measured after incubation for 36 to 48 hrs; type: functional, organism-based; settings: dose 2-10 µM, time 2170-2890 min
# [27] = system: Staphylococcus aureus; assay: Antimicrobial activity against methicillin resistant Staphylococcus aureus incubated for 36 to 48 hrs under dark conditions; type: functional, organism-based; settings: time 36-48 hrs
# [28] = system: Staphylococcus aureus; assay: Binding affinity to Staphylococcus aureus cell wall at 50 uM preincubated with 12.5 to 50 mM Ca2+ for 30 mins followed by incubation with compound for 30 mins
# [29] = system: Candida albicans; assay: Disruption of cell membrane integrity in Candida albicans at 2 uM irradiated with 6J/cm2 light followed by compound exposure for 10 mins by FL-4L/propidium iodide Live/dead staining based laser confocal microscopic analysis
# [30] = system: Staphylococcus aureus; assay: Photodynamic antimicrobial activity against methicillin resistant Staphylococcus aureus preincubated for 10 mins in dark followed by irradiation with 6J/cm2 light and measured after incubation for 36 to 48 hrs; type: functional, organism-based; settings: dose 2-10 µM, time 2170-2890 min
# [31] = system: Staphylococcus aureus; assay: Photodynamic antimicrobial activity against Staphylococcus aureus preincubated for 10 mins in dark followed by irradiation with 6J/cm2 light and measured after incubation for 36 to 48 hrs; type: functional, organism-based; settings: dose 3-18 µM, time 2170-2890 min
# [32] = system: Candida albicans; assay: Antimicrobial activity against Candida albicans incubated for 36 to 48 hrs under dark conditions; type: functional, organism-based; settings: time 36-48 hrs
# [33] = system: Staphylococcus aureus; assay: Binding affinity to Staphylococcus aureus cell wall assessed as bound fraction at 25 uM measured after 3 to 10 mins; settings: time 3-10 min
# [34] = system: Staphylococcus aureus; assay: Light dose-dependent antimicrobial activity against Staphylococcus aureus at 2 to 4 uM preincubated for 10 mins in dark followed by irradiation with 0.6 to 6J/cm2 light dose incubated for 36 to 48 hrs; type: functional, organism-based; settings: dose 2-4 µM, time 2170-2890 min
# [35] = system: Cell membrane; assay: Binding affinity to Staphylococcus aureus cell membrane assessed as reduction in zeta potential by zetasizer-based analysis; type: subcellular
# [36] = Drug uptake in human HaCaT cells at 5 uM measured after 10 to 30 mins by fluorescence based confocal laser scanning microscopic analysis; type: ADME, cell-based; settings: time 10-30 min
# [37] = Drug localization in peripheral edge of Escherichia coli at 10 uM incubated for 30 mins by fluorescent dye based confocal microscopic analysis; type: ADME; settings: 0.5 h
smiles,measurement,setting,value
CC[N+](C)(CC)CCCO[B-]1(OCCC[N+](C)(CC)CC)n2c(C)c(I)c(C)c2C=C2C(C)=C(I)C(C)=[N+]21,Activity,[1],inactive
same,Activity,[2],inactive
same,Activity,[3],inactive
same,MIC,[4],20 µM
same,MIC,[5],40 µM
same,MIC,[6],20 µM
same,MIC,[7],40 µM
same,Activity,[8],0.75
same,Activity,[9],inactive
same,logP at 24 h,[10],-0.93
CC1=C(I)C(C)=[N+]2C1=Cc1c(C)c(I)c(C)n1[B-]2(C#CC[N+](C)(C)C)C#CC[N+](C)(C)C.[I-].[I-],Activity,[11],Active
same,Activity,[12],71%
same,Activity,[13],inactive
same,Activity,[14],inactive
same,pIC50,[15],5.40
same,Activity,[1],inactive
same,Activity,[16],Dose-dependent effect
same,Activity,[17],Non-Toxic
same,Activity,[18],Active
same,Activity,[19],Active
same,Activity,[2],inactive
same,Activity,[20],inactive
same,Activity,[21],inactive
same,Activity,[22],Active
same,Activity,[23],90.8%
same,Activity,[24],Active
same,Activity,[3],inactive
same,Activity,[25],Active
same,MIC,[4],1.25 µM
same,MIC,[5],0.625 µM
same,MIC,[6],1.25 µM
same,Activity,[26],Dose-dependent effect
same,Activity,[27],inactive
same,Activity,[28],inactive
same,MIC,[7],1.25 µM
same,Activity,[8],0.68
same,Activity,[29],Active
same,Activity,[9],inactive
same,Activity,[30],Dose-dependent effect
same,Activity,[31],Dose-dependent effect
same,Activity,[32],inactive
same,Activity,[33],85.3%
same,logP at 24 h,[10],-1.21
same,Activity,[34],Active
same,Activity,[35],Active
CC1=CC(C)=[N+]2C1=Cc1c(C)cc(C)n1[B-]2(C#CC[N+](C)(C)C)C#CC[N+](C)(C)C.[I-].[I-],Drug uptake,[36],Active
same,Drug uptake,[37],Active
same,logP at 24 h,[10],-1.97
